These results are taken from patent US20250161290A1, “CO-CRYSTALS” (CereSpir Incorporated, priority 2021, published 2025).

A short description of data set [1]: Coformer and CSP-1103 aqueous solubility assessment (qualitative). It counts as physicochemical. The note with it: water, thermodynamic from solid, 0.05 M aqueous concentration, gentle heating at 45° C. for 1 minute. How it is done: In a 1-dram vial, enough solvent was added to achieve a 0.05 M aqueous concentration along with some gentle heating at 45° C. for 1 minute to determine if the material would completely dissolve. After 24 hours, observations were made to determine if the material had remained in solution.

The nature of data set [2]: Consolidated qualitative solubility results (Tables 6 and 8). The note with it: for qualitative solvent solubility overlaid with cocrystallization screens' results: Table 8, numbers are molar concentrations pending investigation; for consolidated solubility result: Table 6.
Data set [3] in a line: Coformer solubility assessment in organic solvents (qualitative). The note with it: gentle heating 45° C. if required; for solubility: organic solvent or mixture, thermodynamic from solid. It counts as physicochemical. The method, then:
Coformer solubility assessment was then performed. The following solvents were selected under these solvent classifications, which represent typical manufacturing solvents and have good solvent-solvent miscibility: • 1. Aprotic Polar: acetone, ethyl acetate, acetonitrile; • 2. Hydrogen Bond Donor: ethanol, methanol; and • 3. Electron Pair Donor: MTBE instead of diethyl ether.
Approximately 0.1 mmol of the coformer was weighed out into a 1-dram vial, enough solvent was added to achieve a 0.2 M concentration, and if required, gentle heating was applied at 45° C. for about 1 minute. […] After 65 hours, observations were made to determine if the coformers had remained in solution.

Data set [4] can be described thus: XRPD of pre-exposed and post-exposed DVS samples (solid form stability). It counts as physicochemical. Conditions: two DVS sorption/desorption cycles, 5-95% RH, 25° C. The method, then: X-ray powder diffraction analyses are obtained using a BRUKER D8 ADVANCE equipped with a Cu radiation source operated at 40 kV and 40 mA (λ=1.54 Å after Ni filtering) configured in a Bragg-Brentano geometry, equipped with a 90-position AUTO-CHANGER and a silicon strip detector (SSD160-2). A coupled theta-two theta continuous PSD (Position Sensitive Device) fast scan from 4 to 40 degrees are collected over approximately 32 minutes (0.5 sec/0.01° step). A sample is placed onto a polished zero-background silicon wafer by gently distributing onto the flat surface and is analyzed as a flat plate specimen.
(§1) Samples are analyzed using a TA Instruments Q5000SA gravimetric water sorption analyzer. The relative humidity (RH) is adjusted in 10% RH increments between 5-95% (±1% RH) at 25° C. (±0.5%° C.). The mass of a sample is continuously monitored and recorded with respect to RH and time with criteria for mass equilibrium set as a percent mass change <0.0100 for 5 minutes with a time limit of 720 minutes per step. The humidity is controlled by mixing dry and wet nitrogen streams with a total flow rate of 200 mL/min. The instrument control and data analysis are operated under Advantage for Q Series and Universal Analysis software, respectively.

Data set [5] can be described thus: Dynamic Vapor Sorption (DVS) water sorption/desorption. It counts as physicochemical. How it is done: as §1
The mark [6] stands for this setting: MTBE, organic solvent or mixture.
The mark [7] stands for this setting: acetonitrile, organic solvent or mixture.
Where [8] appears, read: ethyl acetate, organic solvent or mixture.
The mark [9] stands for this setting: ethanol, organic solvent or mixture.

Values after ≈ are worked out from the molar mass of the structure shown.

A word on the solubility: it is the dissolved amount per volume that the medium holds. Turning to `O=C(O)/C=C/c1ccc(O)c(O)c1` [caffeic acid], the solubility (in data set [1]; in the data set “physchem” (setting [6]); in “physchem” (setting [7]); in “physchem” (setting [8]); in the data set “physchem” (water); in data set [3] (MTBE)) was less than 50 mM throughout. For the same compound, the solubility in data set [3] (acetone) was more than 100 mM; in data set [3] (ethanol) it was more than 200 mM; in data set [3] (methanol) it was more than 200 mM. The “qualitative solvent solubility overlaid with cocrystallization screens' results” value (“qualitative solvent solubility overlaid” for short) in data set [2] (acetone (BP 56° C.)), in data set [2] (ethanol (BP 79° C.)) and in data set [2] (methanol (BP 65° C.)) was “✓” each time. In addition, the consolidated solubility result in data set [2] (acetone), in data set [2] (ethanol) and in data set [2] (methanol) was “✓” in each case.

For `NC(=O)c1cccnc1` [nicotinamide], the solubility was more than 50 mM in data set [1]; less than 50 mM in the data set “physchem” (setting [6]); 50 mM (≈ 6.11 mg/mL) in “physchem” (setting [8]); more than 200 mM in data set [3] (acetone); more than 100 mM in data set [3] (acetonitrile); more than 200 mM in data set [3] (ethanol). Besides, the solubility was more than 50 mM in data set [3] (ethyl acetate) and more than 200 mM in data set [3] (methanol). Further, the “solid form change after DVS exposure (XRPD pre- vs post-exposed)” value in data set [4] is reported as “no solid state form changes”. The consolidated solubility result in data set [2] (acetone), in data set [2] (acetonitrile), in data set [2] (ethanol), in data set [2] (ethyl acetate), in data set [2] (methanol) and in data set [2] (water) was “✓” each time. In addition, the “qualitative solvent solubility overlaid” value in data set [2] (acetonitrile (BP 82° C.)), in data set [2] (methanol (BP 65° C.)) and in data set [2] (water (BP 100° C.)) was “✓” in each case. Further, the “Mass Change, Adsorption” value in data set [5] (DVS cycle 1 of 2, RH 5 to 95%) worked out at 1.11%; in data set [5] (DVS cycle 2 of 2, RH 5 to 95%), 1.18%. For the same compound, the “Mass Change, Desorption” value is −1.11% in data set [5] (DVS cycle 1 of 2, RH 95 to 5%) and −1.18% in data set [5] (DVS cycle 2 of 2, RH 95 to 5%).

For the compound `N[C@@H](Cc1ccccc1)C(=O)O` [phenylalanine], the solubility in data set [1] is more than 50 mM; in the data set “physchem” (setting [6]) it was less than 50 mM; in the data set “physchem” (acetone, organic solvent or mixture), less than 50 mM; in “physchem” (setting [7]), less than 50 mM; in “physchem” (setting [9]) it was less than 50 mM; in “physchem” (setting [8]), less than 50 mM. Moreover, in the data set “physchem” (methanol, organic solvent or mixture), the solubility was less than 50 mM. The “qualitative solvent solubility overlaid” value in data set [2] (water (BP 100° C.)) is “✓”. The consolidated solubility result in data set [2] (water) is reported as “✓”.

With `O=C1NS(=O)(=O)c2ccccc21` [saccharin], the solubility in data set [1] is less than 50 mM; in “physchem” (setting [9]), 100 mM (≈ 18.3 mg/mL); in “physchem” (setting [8]), 200 mM (≈ 36.6 mg/mL); in the data set “physchem” (water) it was less than 50 mM; in data set [3] (acetone), more than 200 mM; in data set [3] (acetonitrile) it was more than 200 mM. In addition, the solubility in data set [3] (ethanol) is more than 100 mM; in data set [3] (ethyl acetate), more than 200 mM; in data set [3] (methanol), more than 200 mM. Further, the “qualitative solvent solubility overlaid” value in data set [2] (MTBE (BP 55° C.)), in data set [2] (acetone (BP 56° C.)), in data set [2] (acetonitrile (BP 82° C.)) and in data set [2] (methanol (BP 65° C.)) was “✓” in each case. Also, the consolidated solubility result in data set [2] (MTBE), in data set [2] (acetone), in data set [2] (acetonitrile), in data set [2] (ethanol), in data set [2] (ethyl acetate) and in data set [2] (methanol) was “✓” each time. Moreover, the “qualitative solubility at 0.05 M” value in data set [3] (MTBE) is reported as “Y✓”.

Consider `COc1cc(C=O)ccc1O` [vanillin], for which the solubility in data set [1] was more than 50 mM; in the data set “physchem” (setting [8]) it was 200 mM (≈ 30.4 mg/mL); in data set [3] (MTBE) it was more than 200 mM; in data set [3] (acetone), more than 200 mM; in data set [3] (acetonitrile), more than 200 mM; in data set [3] (ethanol), more than 200 mM. The solubility in data set [3] (ethyl acetate) and in data set [3] (methanol) was more than 200 mM throughout. The “qualitative solvent solubility overlaid” value in data set [2] (MTBE (BP 55° C.)), in data set [2] (acetone (BP 56° C.)), in data set [2] (acetonitrile (BP 82° C.)), in data set [2] (ethanol (BP 79° C.)), in data set [2] (methanol (BP 65° C.)) and in data set [2] (water (BP 100° C.)) was “✓” each time. In addition, the consolidated solubility result in data set [2] (MTBE), in data set [2] (acetone), in data set [2] (acetonitrile), in data set [2] (ethanol), in data set [2] (ethyl acetate) and in data set [2] (methanol) was “✓” each time. Further, the consolidated solubility result in data set [2] (water) is on record as “✓”.
